Data reported in patent publication US20170368018A1, “USE OF ELLAGIC ACID DIHYDRATE IN PHARMACEUTICAL FORMULATIONS TO REGULATE BLOOD GLUCOSE LEVELS” (HALO LIFE SCIENCE, LLC, priority 2014, published 2017).

Legend:
[1] = tested on: MEF cells; assay: Glucose uptake, 2-NBDG labeling, flow cytometry, MEFs; assay type: cell-based, mouse
Experimental: Cellular assays were performed using mouse myoblast C2C12 cells and MEF cells. […] Increased glucose uptake was indicated as increasing signal of 2-NBDG ([…]) in cells. Glucose uptake assays were carried out in a final incubation volume of 50 μl consisting of, 2-NBDG), (100 μM) in 1× Phosphate Buffered Saline w/Ca+, Mg+ (PBS++). The same buffer was used for washing cells. Insulin was used as a positive control. All testing compounds were prepared in […] and diluted 1:100 for a final concentration of 0.1% DMSO (vehicle). Cells were culture to 70-90% confluence and then washed twice with PBS++. Cells were incubated for 30 minutes at 37° C. in PBS++. Nuclear stain, HCS CellMask stain (blue, Invitrogen), and/or testing compounds (ellagic acid dihydrate, insulin, or vehicle) were added. Cells were incubated for 30 min at 37° C. Cells were washed twice with PBS++and incubated with 2-NBDG for 10 minutes. Cells were washed thrice with PBS++and then imaged in PBS++. Alternatively, the final PBS wash was removed and cells were incubated with Accutase (Invitrogen) for 10 min at 37° C., neutralized with 10% FBS in 1× PBS, and analyzed by flow cytometry. An additional experiment was performed to measure glucose uptake in C2C12 cells exposed to metformin, insulin and ellagic acid dihydrate 2 (batch 2). FIG. 5C. Glucose uptake in ellagic acid dihydrate treated cell culture was measured and compared to glucose uptake under insulin or ellagic acid treatment. […] Flow cytometry results were run in triplicate with 1000 cells per batch.

[2] = tested on: MEF cells; assay: Glucose uptake, 2-NBDG labeling, high-content imaging (Operetta), MEFs; assay type: cell-based, mouse
Experimental: Increased glucose uptake was indicated as increasing signal of 2-NBDG ([…]) in cells. Glucose uptake assays were carried out in a final incubation volume of 50 μl consisting of, 2-NBDG), (100 μM) in 1× Phosphate Buffered Saline w/Ca+, Mg+ (PBS++). The same buffer was used for washing cells. Insulin was used as a positive control. All testing compounds were prepared in 10% DMSO and diluted 1:100 for a final concentration of 0.1% DMSO (vehicle). Cells were culture to 70-90% confluence and then washed twice with PBS++. Cells were incubated for 30 minutes at 37° C. in PBS++. Nuclear stain, HCS CellMask stain (blue, Invitrogen), and/or testing compounds (ellagic acid dihydrate, insulin, or vehicle) were added. Cells were incubated for 30 min at 37° C. Cells were washed twice with PBS++and incubated with 2-NBDG for 10 minutes. Cells were washed thrice with PBS++and then imaged in PBS++. Alternatively, the final PBS wash was removed and cells were incubated with Accutase (Invitrogen) for 10 min at 37° C., neutralized with 10% FBS in 1× PBS, and analyzed by flow cytometry. An additional experiment was performed to measure glucose uptake in C2C12 cells exposed to metformin, insulin and ellagic acid dihydrate 2 (batch 2). FIG. 5C. Glucose uptake in ellagic acid dihydrate treated cell culture was measured and compared to glucose uptake under insulin or ellagic acid treatment. […] Flow cytometry results were run in triplicate with 1000 cells per batch.

[3] = tested on: female SWV mice; assay: Weight loss and blood glucose in mice, thirty days daily gavage; assay type: in vivo, mouse; details: for body weight lost on average: supplemental pill, gavage daily
Experimental: Weight loss and blood glucose in mice treated with ellagic acid was determined and weight loss and blood glucose in mice treated with ellagic acid dihydrate may be determined by the following procedure. Mice are treated daily for thirty days with ellagic acid or control in the form of a supplemental pill homogenized and suspended in 25% water solution of Cremophor EL. The mice are treated via gavage using the human equivalent dose (LD) of 122.4 mg pill/kg of subject (40.6 mg ellagic acid/kg of the subject), 10× higher dose (HD) of 1224 mg pill/kg of the subject (406 mg ellagic acid/kg of the subject), or control vehicle (25% water solution of Cremophor EL). The LD and HD dose amounts are calculated based on the following assumptions: a human dose is one 603 mg (200 mg ellagic acid) pill/day, taken orally; the average weight of a person is 60 kg, thus, the average dose for a human equals approximately 9.95 mg of the pill (3.3 mg ellagic acid)/kg daily; a mouse equivalent dose requires 12.3 times the human dose per kg. The mice are weighed and treated daily, and blood glucose level are measured every two days for a total one month period.

[4] = tested on: female SWV mice with STZ induced diabetes; assay: Weight loss and blood glucose in mice with STZ induced diabetes; assay type: in vivo, mouse; details: STZ diabetic mice, thirty days
Experimental: Weight loss and blood glucose in diabetes induced mice treated with ellagic acid was determined and weight loss and blood glucose in mice treated with ellagic acid dihydrate may be determined by the following procedures. Induction of Diabetes: Diabetes is induced in mice by intraperitoneal injection with Streptozotocin (STZ 40 mg/kg) daily for five days. The mice are considered hyperglycemic when the glucose level of each dam is above 200 mg/dL. The mice are fasted for 4 hours before STZ injection and glucose measurement. Treatment: The mice are treated daily for thirty days with ellagic acid or control in the form of a supplemental pill homogenized and suspended in 25% water solution of Cremophor EL. The mice are treated for one month via gavage using the human equivalent dose of 122.4 mg pill/kg of subject (40.6 mg ellagic acid/kg of the subject), the human equivalent does of 40.6 mg ellagic acid/kg of the subject using 98% pure ellagic acid, or control vehicle (25% water solution of Cremophor EL). The human equivalent dose is calculated as described in Example 8. Treatments would start two weeks after the last STZ injection in which hyperglycemia is confirmed in the diabetic mice. The mice would be weighed daily and glucose levels would be measured in fasted animals every five days.

[5] = tested on: mice; assay: Activity level in mice; assay type: in vivo, mouse; details: observation by the Applicant in treated mice
From the text: Activity levels in mice treated with ellagic acid dihydrate may be quantified by several procedures, such as those outlined in Turri, M. et al.; QTL Analysis Identifies Multiple Behavioral Dimensions in Ethological Tests of Anxiety in Laboratory Mice; Current Biology; 2001; 11(10): 725-734. Two examples of procedures taught therein follows. Gross Locomotor Activity in Home Cage: Mice are caged singly several days prior to home cage activity monitoring and subsequent testing. Activity in home cages are measured during the first 2 hours of the dark cycle on two consecutive days. Two infrared photo emitter-detector pairs, located outside the clear plastic home cage that divide the cage into three equal areas, are used to record gross locomotor activity on the floor of the home cage as the animal breaks the photo beams. The beam-break activity score consists of the square root of the number of beam breaks for each detector summed across the two test days. Magnitude of Activity in Home Cage: Mice are caged singly several days prior to home cage activity monitoring and subsequent testing. Activity in home cages are measured during the first 2 hours of the dark cycle on two consecutive days. An infrared motion detector located above the top of the home cage is employed to converts all motion sensed within the home cage into arbitrary units, based on the magnitude of activity detected.

[6] = tested on: mouse myoblast C2C12 cells; assay: Glucose uptake, 2-NBDG labeling, flow cytometry, C2C12; assay type: cell-based
Experimental: Cellular assays were performed using mouse myoblast C2C12 cells and MEF cells. […] Increased glucose uptake was indicated as increasing signal of 2-NBDG ([…]) in cells. Glucose uptake assays were carried out in a final incubation volume of 50 μl consisting of, 2-NBDG), (100 μM) in 1× Phosphate Buffered Saline w/Ca+, Mg+ (PBS++). The same buffer was used for washing cells. Insulin was used as a positive control. All testing compounds were prepared in 10% DMSO and diluted 1:100 for a final concentration of 0.1% DMSO (vehicle). Cells were culture to 70-90% confluence and then washed twice with PBS++. Cells were incubated for 30 minutes at 37° C. in PBS++. Nuclear stain, HCS CellMask stain (blue, Invitrogen), and/or testing compounds (ellagic acid dihydrate, insulin, or vehicle) were added. Cells were incubated for 30 min at 37° C. Cells were washed twice with PBS++and incubated with 2-NBDG for 10 minutes. Cells were washed thrice with PBS++and then imaged in PBS++. Alternatively, the final PBS wash was removed and cells were incubated with Accutase (Invitrogen) for 10 min at 37° C., neutralized with 10% FBS in 1× PBS, and analyzed by flow cytometry. An additional experiment was performed to measure glucose uptake in C2C12 cells exposed to metformin, insulin and ellagic acid dihydrate 2 (batch 2). FIG. 5C.

[7] = tested on: GLUT4-GFP in mouse myoblast C2C12 cells; assay: Localization of glucose transporter GLUT4-GFP, time-lapse confocal microscopy; assay type: cell-based; details: C2C12, 4000 nM
Experimental: Induction of glucose transporter, GLUT-4, in ellagic acid dihydrate treated cell cultures was studied. Cellular assays were performed using mouse myoblast C2C12 cells. The cells were infected with a fusion glucose transporter 4 green fluorescent protein (GLUT4-GFP). This protein allows the visualization of GLUT4 by imaging the GFP under fluorescent time-lapse microscopy. Frames were compiled to produce time-lapse images of cellular changes with no treatment or treatment with insulin. The localization of glucose transporter (GLUT4-GFP) was performed in final incubation volume of 505 μL, consisting of 500 μL of Hank's Buffer (Invitrogen) and 5 μl of tested compounds. Insulin was used as positive controls and vehicle (0.1% DMSO) as the negative control. All test compounds were prepared in 10% DMSO and diluted 1:100 for a final concentration of 0.1% DMSO (vehicle). The cells were rinsed in Hank's Buffer thrice and then incubated in Hank's Buffer at 37° C. for one hour. The test compounds were added (ellagic acid dihydrate, insulin, or vehicle) and the cells were imaged using laser-confocal microscopy (Leica TCS SP5 X) with FITC fluorescent filters to determine changes in GLUT4-GFP localization. Time-lapse images (TIF) were collected and post-processed using Image-J (NIH) for video construction.

[8] = tested on: AKT / Phos AKT in C2C12 cells; assay: AKT:phos AKT ratio by immunocytochemistry, high-content imaging; assay type: cell-based, mouse; details: C2C12, serum starved 1 hr, treated 30 minutes, 4 nM-4 μM, FIG. 8
Experimental: Stimulation of AKT pathways and MAPK pathways in ellagic acid dihydrate, metformin, and insulin treated cell cultures was performed. Insulin stimulates glucose uptake into cells by increasing GLUT4 activation, and AKT, specifically phos-AKT, signaling alters GLUT4 translocation. […] Cellular assays were performed using mouse myoblast C2C12 cells. […] Serum starved cells (1 hr) were treated for 30 minutes with each of the tested compounds.

[9] = tested on: p44/42 MAPK / Phos p44/42 MAPK in C2C12 cells; assay: p44/42 MAPK:phos p44/42 MAPK ratio by immunocytochemistry, high-content imaging; assay type: cell-based, mouse; details: C2C12, treated 30 minutes, 0.04 nM, FIG. 9
Experimental: Stimulation of AKT pathways and MAPK pathways in ellagic acid dihydrate, metformin, and insulin treated cell cultures was performed. Insulin stimulates glucose uptake into cells by increasing GLUT4 activation, and AKT, specifically phos-AKT, signaling alters GLUT4 translocation. […] Cellular assays were performed using mouse myoblast C2C12 cells. Relative protein levels of AKT:phos AKT and p44/42 MAPK:phos p44/42 MAPK were determined.
Serum starved cells (1 hr) were treated for 30 minutes with each of the tested compounds. Ratios of phosphorylated to non-phosphorylated proteins were determined using immunocytochemistry labeling (anti-AKT, anti-Phos AKT; or anti-p44/42 MAPK, anti-Phos p44/42 MAPK) on a high-content imaging system (Operetta, Perkin Elmer) using the fluorescent signal of anti-rabbit Alexa 647. Increased phosphorylation is indicated as decrease in signal of AKT:Phos AKT ratio (log2 scale) and p44/42 MAPK:Phos p44/42 MAPK ratio (log2 scale) relative to vehicle treated cells.

Molecule | glucose uptake per unit dose ([1]; in vitro conditions, summary statement) | dose effect for increasing glucose uptake [2] | blood glucose ([3]; all treatments (LD, HD) compared to control) | body weight lost on average ([3]; 10× higher dose (HD, 406 mg ellagic acid/kg)) | body weight lost on average ([3]; human equivalent dose (LD, 40.6 mg ellagic acid/kg)) | body weight lost on average ([4]; human equivalent dose, daily) | mean glucose level values, treated versus control mice [4] | activity levels [5] | increased glucose uptake relative to vehicle treated cells ([1]; 400 nM exposure, fibroblasts, FIG. 4B) [%] | dose effect for increasing glucose uptake ([1]; MEFs, flow cytometry, 4 μM-0.04 nM) | glucose uptake (2-NBDG signal) relative to vehicle ([1]; MEFs, flow cytometry, FIG. 4A) | increase in glucose uptake in myoblasts relative to fibroblasts ([6]; C2C12 (FIGS. 5A, 5B) versus MEFs (FIGS. 4A, 4B)) [×] | dose effect for increasing glucose uptake ([6]; C2C12, flow cytometry, 4 μM-0.04 nM) | glucose uptake (2-NBDG signal) relative to vehicle ([6]; C2C12, flow cytometry, FIG. 5A) | glucose uptake (signal of 2-NBDG) in comparison to vehicle [2] | GLUT4-GFP around the cell nucleus [7] | ruffling of filopodia at the surface of the cell [7] | AKT:Phos AKT ratio (log2 scale) relative to vehicle treated cells [8] | p44/42 MAPK:Phos p44/42 MAPK ratio relative to vehicle treated cells ([9]; 400 nM) | p44/42 MAPK:Phos p44/42 MAPK ratio relative to vehicle treated cells [9]
O=c1oc2c(O)c(O)cc3c(=O)oc4c(O)c(O)cc1c4c23 [ellagic acid] | little to no glucose uptake per unit dose | no such dose effect | Normal levels of blood glucose | 10.4 % of body weight | 8.9 % of body weight | 11.7 % of body weight | no significant differences | increased activity levels | – | – | – | – | – | – | – | – | – | – | – | –
insulin: Insulin was used as a positive control [reference compound] | – | showed a dose effect | – | – | – | – | – | – | 32 | showed a dose effect | significant increase | ~4 | showed a dose effect | significant increase | showed an increase in glucose uptake | decrease in GLUT4-GFP around the cell nucleus | rapid production of numerous projections | −0.5 | increase in p44/42 MAPK | –
CN(C)C(=N)N=C(N)N [metformin] | – | – | – | – | – | – | – | – | – | – | – | – | – | – | – | – | – | increase in AKT relative to phosphorylation of AKT | – | increased the ratio of p44/42 MAPK
